The source made the active and inactive calls. No cut-off for these calls is given here.
Experiments:
[1] = tested on: Pseudopestalotiopsis theae; experiment: Fungicidal activity against Pestalotiopsis theae infested tea plant in nursery assessed as reduction in plant casuality at 5 % sprayed on topsoil measured after 90 days; format: functional, organism-based
[2] = tested on: Pseudopestalotiopsis theae; experiment: Fungicidal activity against grey blight disease-causing Pestalotiopsis theae infested tea plantation assessed as green leaf yield which made tea at 0.05 % applied as foliar spray (reference value: 2884 kg/ha ); format: functional
[3] = tested on: Pseudopestalotiopsis theae; experiment: Fungicidal activity against Pestalotiopsis theae infested tea plant in nursery assessed as reduction in plant casuality at 0.05 % sprayed on topsoil measured after 90 days (reference value: 58 %); format: functional; set-up: scale not given: the % may be the effect or the level left
[4] = tested on: Pseudopestalotiopsis theae; experiment: Fungicidal activity against grey blight disease-causing Pestalotiopsis theae infested tea plantation assessed as disease incidence at 0.05 % applied as foliar spray (reference value: 39.2 %); format: functional
[5] = tested on: Pseudopestalotiopsis theae; experiment: Fungicidal activity against Pestalotiopsis theae infested tea plant in nursery assessed as reduction in plant casuality at 3 % sprayed on topsoil measured after 90 days; format: functional, organism-based
[6] = tested on: Pseudopestalotiopsis theae; experiment: Fungicidal activity against grey blight disease-causing Pestalotiopsis theae infested tea plantation assessed as green leaf yield which made tea compound applied on shears during hravesting (reference value: 3044 kg/ha); format: functional
[7] = tested on: Pseudopestalotiopsis theae; experiment: Fungicidal activity against grey blight disease-causing Pestalotiopsis theae infested tea plantation assessed as disease incidence compound applied on shears during hravesting (reference value: 47 %); format: functional

With `COC(=O)Nc1nc2ccccc2[nH]1` [CARBENDAZIM] the Activity [1] was “Active”, the Crop_yield [2] was 3845 kg/ha and the Activity [3] was 5%. The Activity [4] was 6.6%.

For `COC(=O)NC(=S)Nc1ccccc1NC(=S)NC(=O)OC` [THIOPHANATE METHYL], the Activity [5] was “Active”, the Crop_yield [2] was 3886 kg/ha and the Crop_yield [6] was 3457 kg/ha. The Activity [3] was 3%, the Activity [7] was 17.5% and the Activity [4] was 5.6%.

Source: ChEMBL document CHEMBL3045161, “Evaluation of fungicides and biocontrol agents against grey blight disease of tea in the field” (2008)
